Results reported in patent US6040149A, “Assay for identifying agents which act on the ceramide-activated protein kinase, kinase suppressor of ras, and methods of using said agents” (priority 1997, dated 2000).
Like-named read-outs stand apart in the source and are kept apart here.

Legend:
[1] = test system: ceramide-activated protein kinase; settings: nuclei-free supernates, ref. [40], cited from earlier work
[2] = test system: ceramide-activated protein kinase; assay: EGFR peptide phosphorylation by kinase in A-431 microsomal membranes / postnuclear supernatant; assay type: biochemical, human (A-431 epidermoid carcinoma cells)
Procedure: Kinetics of ^32 Pi incorporation into the EGFR peptide. […] The reaction was initiated by addition of 50 μl of [γ-^32 P]ATP (150 μM final concentration) and terminated by addition of 50 μl of 0.5 M ATP in 90% (vol/vol) formic acid. Samples were spotted on phosphocellulose paper, washed with 1 M acetic acid/4 mM pyrophosphate, and ^32 P incorporation was measured by liquid-scintillation counting, as described. A boiled protein blank was subtracted from each data value. The data (means) represent duplicate samples from one of two similar experiments. […]
Kinetics of ceramide-induced ^32 Pi incorporation into EGFR peptide. Peptide phosphorylation was done as described in FIG. 2 in the absence (.smallcircle.) or presence (.circle-solid.) of 0.5 μM C8 -ceramide. Phosphorylated peptide was resolved by HPLC. Values (means) represent data from three experiments.
Concentration-dependence of ceramide-induced ^32 Pi incorporation into EGFR peptide. Peptide phosphorylation reactions were done as described for FIG. 2, for 2 minutes, using various concentrations of ceramide (0.001-3 μM). Phosphorylated peptide was resolved by HPLC. Values (means) represent data from three experiments. […]
Phosphorylation was initiated at 22° C. by addition of 50 μl of [γ-^32 P] ATP (150 μM final concentration; 4000 dpm/pmol). For studies with lipid activators, ceramide and other lipids were dried under N2 and resuspended in the kinase assay buffer by bath sonication for 2 minutes at 37° C.
Phosphorylated peptide was quantified by two separate methods. For initial studies, samples were spotted on phosphocellulose paper, washed in 1 M acetic acid/4 mM pyrophosphate and subjected to liquid scintillation counting, according to methods well known to those skilled in the art. Values obtained from a boiled blank or a sample lacking peptide were subtracted from each determination. Alternatively, HPLC was done according to methods well known to those skilled in the art. For these studies, samples were first applied to a C18 Sep-Pak cartridge and eluted with 99.9% acetonitrile/0.1% trifluoroacetic acid. The eluates were lyophilized, resuspended in 6 M guanidine hydrochloride/200 mM Tris, pH 8.5 and applied to a C18 reverse-phase column (Dynamax, 4.6 mm i.d., Rainin, Woburn, Mass.). The peptide was eluted with a linear gradient (1% per minute) of acetonitrile at a flow rate of 1 ml/minute and was detected by measuring the Cerenkov radiation associated with 1-ml fractions.

[3] = test system: ceramide-activated protein kinase; assay: Ceramide-activated protein kinase activity (EGFR peptide) in EL-4 cell fractions; settings: baseline, EL-4 membranes
Procedure: Effect of IL-1β on ceramide-activated protein kinase activity. […] Homogenates were centrifuged at 500×g for 5 minutes to remove nuclei and at 200,000×g for 30 minutes to prepare microsomal membranes. Membranes were resuspended into homogenizing buffer (2.2 μg membrane protein μl^-1). For assay of kinase activity, the reaction mixture contained 20 μl of microsomal membrane, 40 μl EGFR peptide (4 mg ml^-1 in 25 mM Hepes, pH 7.4) and 100 μl buffer (50 mM HEPES, pH 7.4, 20 mM MgCl2). Phosphorylation was initiated at 22° C. by addition of 40 μl [γ-^32 P] ATP (100 μM final concentration) and terminated at the indicated times by addition of 40 μl of 0.5 M ATP in 90% formic acid. Phosphorylated peptide was eluted from a C18 Sep pak cartridge (Millipore), lyophilized, and resolved by C18 reverse phase HPLC using a linear gradient of acetonitrile. […] All assays were performed under conditions determined as linear for time and enzyme concentration. Enzyme activity was determined from the percent conversion of substrate to product and the specific radioactivity of [γ-^32 P] ATP. […] Values (mean±range) represent duplicate determinations from two experiments.
Activity was measured by the transfer of ^32 P from the γ-position of ATP to EGFR peptide (AA 663-681 of the EGFR). The effect of IL-1β on kinase activity was determined using microsomal membranes derived from cells stimulated with IL-1β.

CAP kinase = assay: Phosphorylation of Raf-1 peptides by CAP kinase; assay type: biochemical, bovine (brain)
[4] = test system: ceramide-activated protein kinase; assay: CAP kinase activation in HL-60 cells (renaturation and autophosphorylation); assay type: cell-based, human (HL-60 cells)
Procedure: Stimulation of ceramide-activated protein (CAP) kinase by lipid A. On the day of an experiment, HL-60 cells were resuspended (1×10^6 cells ml^-1) into serum-free RPMI 1640 containing 5 μg ml^-1 insulin and transferrin. After 2 h, cells were stimulated with lipid A (Escherichia Coli) or diluent (DMSO, <0.01%). Ceramide-activated protein kinase contained within microsomal membranes was detected by renaturation and autophosphorylation. Briefly, membrane proteins (200 μg per lane) were separated by SDS-PAGE (10%), and the gel was washed with two changes of buffer (50 mM Tris, pH 7.4, 5 mM 2-mercaptoethanol) containing 20% 2-propanol at room temperature for 1 h, and once in buffer without 2-propanol for 1 h. Denaturation was accomplished by incubation of the gel in two changes of 6M guanidinium HCl in wash buffer for 1 h each. Renaturation was accomplished by incubation of the gel overnight at 4° C. in wash buffer containing 0.04% Tween-20. The gel was then equilibrated for 10 min at room temperature in kinase reaction mixture (25 mM HEPES, pH 7.4, 10 mM MgCl2, 0.5 mM EGTA and 5 mM NaF) and [γ-^32 p] ATP (50 μM final concentration; 1000 dpm pmol^-1) was added. Autophosphorylation was terminated by removal of the reaction mixture. The gel was washed with 6 changes of buffer (5% trichloroacetic acid, 1% sodium pyrophosphate) for 2 h and subjected to autoradiography. Top panel--Time course of lipid A activation. Bottom panel--Dose response at 5 minutes of lipid A stimulation. Autoradiograms represent one of three similar studies in both panels A and B.
On the day of an experiment, cells were resuspended (1×10^6 cells ml^-1) into serum-free RPMI 1640 containing 5 μg ml^-1 insulin and transferrin. After 2 h, cells were stimulated with lipid A or diluent (DMSO, <0.01% ). […] The postnuclear supernate was centrifuged at 200,000×g for 30 min and microsomal membranes were resuspended ([…]) into homogenizing buffer. Ceramide-activated protein kinase was detected by renaturation and autophosphorylation. Briefly, membrane proteins (200 μg per lane) were separated by SDS-PAGE (10%), and the gel was washed with two changes of buffer (50 mM Tris, pH 7.4, 5 mM 2-mercaptoethanol) containing 20% 2-propanol at room temperature for 1 h, and once in buffer without 2-propanol for 1 h. Denaturation was accomplished by incubation of the gel in two changes of 6M guanidinium HCl in wash buffer for 1 h each. Renaturation was accomplished by incubation of the gel overnight at 4° C. in wash buffer containing 0.04% Tween-20. The gel was then equilibrated for 10 min at room temperature in kinase reaction mixture (25 mM HEPES, pH 7.4, 10 mM MgCl2, 0.5 mM EGTA and 5 mM NaF) and [γ-^32 P] ATP (50 μM final concentration; 1000 dpm pmol^-1. Autophosphorylation was terminated by removal of the reaction mixture. The gel was washed with 6 changes of buffer (5% trichloracetic acid, 1% sodium pyrophosphate) for 2 h and subjected to autoradiography.
For studies involving activation of ceramide-activated protein kinase by LPS, HL-60 cells (13×10^6 ml^-1) were handled as above, and LPS (Salmonella typhosa, 50 ng ml^-1), recombinant LBP (1.7 μg ml^-1) or both LPS and LBP were added for the times indicated. Isolation of microsomal membranes and autophosphorylation of ceramide-activated protein kinase were performed as above.

[5] = test system: ceramide-activated protein kinase; assay: Ceramide-activated protein kinase activity toward MBP after HL-60 cell treatment; assay type: cell-based, human (HL-60 cells)
Procedure: Membrane proteins (200 μg) from treated and untreated cells were subjected to SDS-PAGE and kinase activity was renatured as above. Autophosphorylation was allowed to proceed for 10 min and the gel was washed for 20 min with four changes of 50 mM HEPES buffer, pH 7.4. Gel slices were then excised from regions corresponding to 100-110 KDa, crushed, and incubated for 1 h with 10μ MBP (5 mg ml^-1) and 40 μl kinase reaction mixture in the presence of [γ-^32 P]ATP (50 μM final concentration). Reactions were terminated by addition of 10 μl Laemmli buffer, boiling for 3 min, and centrifugation of gel particles. The supernates were subjected to electrophoresis and autoradiography.
Since prior studies correlated enhanced autophosphorylation of ceramide-activated protein kinase with increased kinase activity toward exogenous substrate, the effect of kinase activity toward MBP was examined after treatment of HL-60 cells with lipid A. For these studies, gel slices corresponding to ceramide-activated protein kinase were subjected to autophosphorylation for 10 min in buffer containing ATP (50 μM final concentration), and then were washed and incubated with MBP in a kinase reaction mixture containing [γ-^32 P]ATP [119]. After termination of reactions, samples were subjected electrophoresis and visualized by autoradiography. […] Enhancement of MBP phosphorylation was detectable at 0.5 min of lipid A treatment and maximal at 15 min.

Nc1ncnc2c1ncn2[C@@H]1O[C@H](COP(=O)(O)OP(=O)(O)OP(=O)(O)O)[C@@H](O)[C@H]1O [ATP, adenosine triphosphate]
Km ([1]; read-out: Km (ATP)): 15 µM | Km ([2]; 5 minutes, Lineweaver-Burke, read-out: apparent Km (ATP)): 15 µM | Km ([3]; read-out: Km (ATP)): 70 µM

NH2 -Glu-Leu-Val-Glu-Pro-Leu-Thr-Pro-Ser-Gly-Glu-Ala-Pro-Asn-Gln-Ala-Leu-Leu-Arg-COOH (H-ELVEPLTPSGEAPNQALLR-OH) [EGFR peptide]
Km (peptide) [1]: 0.25 mg/mL | apparent Km (EGFR peptide) ([2]; 5 minutes, Lineweaver-Burke): 0.25 mg/mL | apparent Vmax ([2]; EGFR peptide phosphorylation): 100-200 pmol.min^-1.mg of protein^-1 | Km (EGFR peptide) [3]: 0.15 mg/mL | maximum reaction velocity [3]: 12.5 pmol min^-1 mg^-1 of microsomal membrane protein

RQRSTSTPNVHMVSAALPVDSRMIE [AALP (SEQ ID NO: 6)]
phosphorylation of Raf-1 peptide by CAP kinase (CAP kinase): failed to phosphorylate

lipid A
maximal activation of ceramide-activated protein kinase ([4]; 500 nM lipid A, of control): 5 fold | earliest detection of increased autophosphorylation ([4]; early kinetics studies): 30 s | concentration of maximal effect ([4]; lipid A): 500 nM | lowest effective concentration ([4]; lipid A): 10 nM | duration of enhanced autophosphorylation ([4]; lipid A 5 μM): 60 min | enhancement of autophosphorylation detected at ([4]; lipid A 5 μM): 5 min | onset of enhanced MBP phosphorylation ([5]; lipid A): 0.5 min | time of maximal MBP phosphorylation ([5]; lipid A): 15 min | enhancement of MBP phosphorylation ([5]; lipid A-treated HL-60 cells): 5 fold
